Measured values as given in paper PMC6660600, “Odorant Inhibition in Mosquito Olfaction” (iScience, 2019).

Tests used:
Assay in all cases: voltage clamp of Xenopus oocytes
Assay type in all cases: cell-based
CquiOR32-CquiOrco [1] = target: T1, CquiOR32-CquiOrco (Culex quinquefasciatus, UniProt A0A3S7SHH6); conditions: agonist (inward current), absolute value, coexpressed with CquiOrco
T1 construct: gene OR32; full-length OR coexpressed with Orco in Xenopus oocytes; heteromeric ligand-gated cation channel; with Odorant receptor coreceptor Orco
T1 sequence (A0A3S7SHH6 1-397): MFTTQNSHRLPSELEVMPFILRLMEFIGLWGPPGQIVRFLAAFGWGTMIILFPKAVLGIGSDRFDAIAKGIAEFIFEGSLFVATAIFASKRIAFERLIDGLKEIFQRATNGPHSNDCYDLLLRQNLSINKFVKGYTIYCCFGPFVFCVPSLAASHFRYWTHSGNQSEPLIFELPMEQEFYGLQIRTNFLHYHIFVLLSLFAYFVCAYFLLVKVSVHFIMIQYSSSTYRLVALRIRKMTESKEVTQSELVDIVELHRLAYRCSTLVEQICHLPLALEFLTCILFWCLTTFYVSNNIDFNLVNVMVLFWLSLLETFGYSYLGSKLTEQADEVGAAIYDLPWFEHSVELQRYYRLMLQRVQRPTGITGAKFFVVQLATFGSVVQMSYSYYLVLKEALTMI
T1 sequence (Q309I4 1-480 partner): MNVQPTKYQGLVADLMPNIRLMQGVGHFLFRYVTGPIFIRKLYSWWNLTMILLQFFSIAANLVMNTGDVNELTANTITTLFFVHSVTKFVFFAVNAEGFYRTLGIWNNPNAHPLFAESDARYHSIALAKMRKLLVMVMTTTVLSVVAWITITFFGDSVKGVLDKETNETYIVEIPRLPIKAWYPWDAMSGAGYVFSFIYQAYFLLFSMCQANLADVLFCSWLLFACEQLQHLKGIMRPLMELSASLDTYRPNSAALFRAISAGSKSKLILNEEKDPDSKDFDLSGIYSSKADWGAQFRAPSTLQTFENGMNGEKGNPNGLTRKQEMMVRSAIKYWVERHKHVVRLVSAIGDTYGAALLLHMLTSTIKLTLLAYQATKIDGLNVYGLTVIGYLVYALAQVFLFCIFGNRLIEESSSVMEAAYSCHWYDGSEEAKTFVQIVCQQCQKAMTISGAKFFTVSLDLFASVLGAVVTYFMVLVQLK

CquiOrco = target: T2, CquiOrco (Culex quinquefasciatus, UniProt Q309I4); conditions: Orco agonist; Orco expressed alone
T2 construct: full-length Orco expressed alone in Xenopus oocytes
T2 sequence (Q309I4 1-480): T1 sequence (Q309I4 1-480 partner)

CquiOR32-CquiOrco [2] = target: T1, CquiOR32-CquiOrco; conditions: agonist (inward current), dose-dependent, coexpressed with CquiOrco
CquiOR32-CquiOrco [3] = target: T1, CquiOR32-CquiOrco; conditions: inhibitor (reverse current), absolute value, coexpressed with CquiOrco
CquiOR32-CquiOrco [4] = target: T1, CquiOR32-CquiOrco; conditions: inhibitor (reverse current), coexpressed with CquiOrco

For OCCc1ccccc1 [2-phenylethanol], which “inward current at 1 mM” value (CquiOR32-CquiOrco [1]) is on record?
The value was 44 ± 9 nA.

For CCc1ccc(NC(=O)CSc2nnc(-c3cccnc3)n2CC)cc1 [VUAA-1], which current (CquiOrco) is on record?
Its current is “Response of a CquiOrco-expressing oocyte to Orco agonist, VUAA-1, is displayed in an inset”.

For COC(=O)c1ccccc1O [MS, methyl salicylate], which inward current (CquiOR32-CquiOrco [2]) is on record?
Its inward current is “Methyl salicylate elicited inward currents, and eucalyptol generated currents in the reverse direction”.

For CC1=CCC(=C(C)C)CC1 [terpinolene], which “reverse current at 1 mM” value (CquiOR32-CquiOrco [3]) is on record?
The value was 38 ± 8 nA.

Which reverse current (CquiOR32-CquiOrco [4]; 1 mM (Figure 1A)) does the source give for CCN(CC)C(=O)c1cccc(C)c1 [DEET] here?
Its reverse current is “eucalyptol, fenchone, DEET, picaridin, IR3535, PMD, and other compounds generated currents in reverse direction”.

How did the reverse current (CquiOR32-CquiOrco [4]; dose-dependent, also reduces methyl salicylate response, proposed negative allosteric modulator) turn out when CC12CCC(CC1)C(C)(C)O2 [EUC, eucalyptol] was run?
The reverse current was “eucalyptol generated currents in the reverse direction”.

How did the inward current (CquiOR32-CquiOrco [2]; 1 mM (Figure 1A)) turn out when O=C1CCCCC1 [CYC, cyclohexanone] was run?
The inward current was “various odorants, including cyclohexanone, methyl salicylate, and 2-methyl-2-thiazoline”.

How did the “inward current at 1 mM” value (CquiOR32-CquiOrco [1]) turn out when CCC(C)=O [2-butanone] was run?
The value was 45 ± 7 nA.

CC(=O)c1ccccc1 [acetophenone] was tested. Which “inward current at 1 mM” value (CquiOR32-CquiOrco [1]) did it give?
Its value is 58 ± 12 nA.

For CC1=CC=C(C(C)C)CC1 [α-terpinene], which “reverse current at 1 mM” value (CquiOR32-CquiOrco [3]) is on record?
Its value is 43 ± 5 nA.

Which reverse current (CquiOR32-CquiOrco [4]; 1 mM (Figure 1A)) does the source give for CC12CCC(C1)C(C)(C)C2=O (stereo not drawn) [FEN, fenchone] here?
Its reverse current is “eucalyptol, fenchone, DEET, picaridin, IR3535, PMD, and other compounds generated currents in reverse direction”.

For CCC(C)OC(=O)N1CCCCC1CCO (stereo not drawn) [picaridin], which reverse current (CquiOR32-CquiOrco [4]; 1 mM (Figure 1A)) is on record?
Its reverse current is “eucalyptol, fenchone, DEET, picaridin, IR3535, PMD, and other compounds generated currents in reverse direction”.

How did the “inward current at 1 mM” value (CquiOR32-CquiOrco [1]) turn out when COc1ccccc1O [guaiacol] was run?
The value was 101 ± 11 nA.

How did the inward current (CquiOR32-CquiOrco [2]; 1 mM (Figure 1A)) turn out when CC1=NCCS1 [2MT, 2-methyl-2-thiazoline] was run?
The inward current was “various odorants, including cyclohexanone, methyl salicylate, and 2-methyl-2-thiazoline”.

CCC1CCC(=O)O1 (stereo not drawn) [γ-hexalactone] was tested. Which “inward current at 1 mM” value (CquiOR32-CquiOrco [1]) did it give?
The value was 115 ± 14 nA.
